# Experiments:
# [1] = test system: HCT116 (colorectal) tumor cells; experiment: CELLTITER-GLO cell viability assay, HCT116; assay type: cell-based, human; settings: COMPOUND A alone, 72 hours, 5% FBS (FIG. 6)
# Protocol: (§1) CELLTITER-GLO® Cell Viability Assay (a homogeneous method of determining the number of viable cells in culture based on quantitation of the ATP present, an indicator of metabolically active cells)
# (§2) MKN1 (gastric), PC3 (prostate), NCIH727 (lung), and HCT116 (colorectal) tumor cell lines; Control=0.1% DMSO
# (§3) To prepare 10 mM FL41 stock from powder dissolve 4.1 mg of FL41 powder into 0.74 ml DMSO-aliquot and store at −20 C until use DMSO-stock from Sigma or other suitable vendor-must be reagent or ACS grade or better.
# (§4) Place 5000 cells per well (200 ul) in duplicate in their preferred media as shown in 96-well plate diagram immediately below. Reduce the final FBS (serum) concentration to 5% before adding cells to media. Incubate cells overnight and then remove old media carefully and add fresh media with 5% FBS and then either add DMSO alone, COMPOUND A alone or in combination with GEM (gemcitabine) in wells where noted at the final concentrations noted. Incubate the cells at 37 C in CO2 incubator for an additional 72 hours in presence of compounds. At the end of the 72-hour period add Promega Titerglo reagent to the wells and then measure luminescence to assess relative cell number.
# [2] = test system: PC3 (prostate) tumor cells; experiment: CELLTITER-GLO cell viability assay, PC3; assay type: cell-based, human; settings: COMPOUND A alone, 72 hours, 5% FBS
# Protocol: as §1, §2, §3, §4
# [3] = test system: NCIH727 (lung) tumor cells; experiment: CELLTITER-GLO cell viability assay, H727; assay type: cell-based, human
# Protocol: as §1, §2, §3, §4
# [4] = test system: MKN1 (gastric) tumor cells; experiment: CELLTITER-GLO cell viability assay, MKN1; assay type: cell-based, human
# Protocol: as §1, §2, §3, §4
# [5] = test system: HPAF-II (pancreatic) tumor cells; experiment: MTT cell viability assay with HPAF-II pancreatic tumor cells; assay type: cell-based, human
# Protocol: MTT Cell Viability Assay with HPAF-II (Pancreatic) Tumor Cells—
# 10 mM of COMPOUND A stock solution was made by dissolving the 8.2 mg of powder form of COMPOUND A in 1.468 mL of DMSO to form the stock solution. The stock solution was aliquoted to 0.6 mL microcentrifuge tubes with 20 μl of solution in each microcentrifuge tube.
# Pancreatic cancer cell line HPAF-II was seeded in a 96-well plate with 5000 cells/well and incubated overnight at 37° C. The next day, cells were treated triplicate by removing cell media and replaced with fresh media containing COMPOUND A alone at increasing concentrations (10 μM, 20 μM, 20 μM, 50 μM, 75 μM, 100 μM 125 μM 150 μM, 175 μM 200 μM) as well as the combination of the 10 μM of COMPOUND A and Gemcitabine at increasing concentrations (0 μM, 0.01 μM, 0.05 μM, 0.1 μM, 0.5 μM, 1 μM, 5 μM, 10 μM). Drug vehicle (DMSO, Sigma) was used as a control for the treatment. Cells were then left to grow in the presence of the drugs for the following 72 hours.
# After 72 hours, the media was discarded and the cells were incubated with MTT (3-(4,5-Dimethylthiazol-2-yl)-2,5-diphenyltetrazolim bromide) solution (5 mg/ml stock) at working concentration of 0.5 mg/ml in fresh cell growth media for 2 hours at 37° C. The reaction was stopped when the majority of the cells was stained. MTT solution was then aspirated and the plate was left to dry for several hour. Stained cells were then resuspended in 70 μl of DMSO and mixed well. The absorbance was read with the use of a plate reading spectrophotometer at the 570 nm. The CompuSyn data for the drug combination of COMPOUND A and Gemcitabine in each cell line was generated and analysed using the CompuSyn software which was set up by […] and published by ComboSyn, Inc.
# phospho-ERK = experiment: Western blot of ERK phosphorylation in HPAF-11 pancreatic tumor cells; assay type: cell-based, human; settings: HPAF-11 cells, 48 hours, DMEM 10% FBS, western blot (FIG. 3)
# Protocol: Cells were treated for 48 hours with indicated concentrations of COMPOUND A in DMEM containing 10% FBS. Phosphorylation of ERK was assessed by western blot using antibodies that detect total and phospho-ERK. Actin detection was used as a loading control for total lysate protein.
# [6] = low, dose dependent; cited from earlier work
Structure (SMILES),growth of HCT116 (colorectal) tumor cell line as compared to control [1],growth of PC3 (prostate) tumor cell line as compared to control [2],"growth of H727 (lung) tumor cell line as compared to control ([3]; COMPOUND A alone, 72 hours, 5% FBS (FIG. 7))","effect on gemcitabine growth inhibition of human h727 lung tumor cells ([3]; combination with gemcitabine, 72 hours (FIG. 8))","growth of MKN1 (gastric) tumor cell line as compared to control ([4]; COMPOUND A alone, 72 hours, 5% FBS (FIG. 4))","effect on gemcitabine growth inhibition of human mkn1 gastric tumor cells ([4]; combination with gemcitabine, 72 hours (FIG. 5))",growth of HPAFII (pancreatic) tumor cell line as compared to control ([5]; COMPOUND A alone),"increase in rate of the cell kill vs Compound A or gemcitabine alone ([5]; HPAF-II, 10 μM COMPOUND A combined with gemcitabine, 72 hours (FIG. 2))","kill of the pancreatic tumor cells ([5]; HPAF-II, 50 μM, 72 hours, MTT (FIG. 1)) [%]","kill of the tumor cells ([5]; HPAF-II, about 175 μM, 72 hours, MTT (FIG. 1))",phospho-ERK levels in tumor cells as compared to control (phospho-ERK),oral and oromucosal bioavailability [6]
C=C(C)[C@@H]1CCC(C)=C[C@H]1c1c(O)cc(CCCCC)cc1OC(=O)N[C@@H](C)C(=O)N[C@@H](CCC(=O)O)C(=O)O [COMPOUND A],inhibit the growth,inhibit the growth,inhibit the growth,potentiates,inhibit the growth,synergistic impact,inhibit the growth,at least 10%,≥ 50,more than 80%,effectively decrease phospho-ERK levels,
"C=C(C)[C@@H]1CCC(C)=C[C@H]1c1c(O)cc(CCCCC)cc1O [CBD, Cannabidiol]",,,,,,,,,,,,about 35%

# Source: patent publication US11980602B2, “Cannabinoid prodrug compounds” (Firstlight Pharmaceuticals LLC, priority 2019, dated 2024)
